In patent US6197568A (priority 1998, dated 2001):

How the values were obtained:
[1] = molecular target: T1, Recombinant dengue 2 virus envelope protein (Dengue virus type 2, UniProt P27914); assay: Envelope protein binding assay with competitive antagonists, Vero cells, flow cytometry; type: cell-based
T1 construct: extending from the start codon to the beginning of the transmembrane region (nucleotides 1 to 1272); CD5 signal peptide (N); made in house; host or cells: COS-7 cells (transfected; purified from cell lysate on protein A)
Method: Panels A-D: Competitive antagonists. Recombinant dengue 2 virus envelope protein was co-incubated with Vero cells in the presence of potential competitive antagonists, and the degree of binding was quantitated by flow cytometry. Abscissa: Competitive antagonist. Binding of envelope protein without antagonist is indicated by dengue Env column. Background binding (cells incubated with normal human IgG instead of envelope protein) is indicated by Control IgG column. Ordinate: Median fluorescence intensity derived from flow cytometry histograms for each sample.
Vero cells were detached from their culture surface without proteases (incubated in cation-free phosphate buffered saline (PBS, Gibco-BRL) with 5 mM EDTA, 10 min. 37° C., washed, and incubated with envelope protein (10 μg/ml) and competitive antagonists (10 μg/ml unless otherwise indicated) in cation containing PBS with 1% normal goat serum (Gibco-BRL), for 1 hour at 4° C. Cells were washed two times, incubated with R-phycoerythrin labeled Fab2 fragment of affinity purified goat antibody to human IgG Fc (5 μg/ml, Jackson Labs.) for 1 hour at 4° C., and washed two times. Cellular fluorescence and forward angle light scatter were quantitated by flow cytometry (FACScan, Becton Dickinson). A minimum of 10,000 cells was assessed from each treatment group. Data were accumulated only for viable cells; non-viable cells were excluded from analysis on the basis of low forward angle light scatter. Results were expressed as frequency histograms of fluorescence per cell. A value for median fluorescence intensity was derived from the fluorescence frequency histograms for each sample, and used to compare fluorescence between samples. In each experiment, controls consisted of untreated cells, cells incubated with only the secondary fluorochrome-labeled antibody, and cells incubated with normal human IgG followed by the secondary fluorochrome-labeled antibody.
Chondroitin sulfate (CS) from bovine trachea, dermatan sulfate (DS) from bovine mucosa, heparan sulfate (HS) from bovine kidney, heparin from bovine lung, keratan sulfate (KS) from bovine cornea, and dextran sulfate (DexS) (MW 5×105) were obtained from Sigma Chemical Co. and used at a concentration of 10 μg/ml.

[2] = system: dengue 2 New Guinea C strain virus; assay: Infectivity assay, dengue virus infection of Vero cells (cytopathic effect); type: cell-based, dengue 2 virus
[3] = system: Human umbilical vein endothelial cells

## Cc1ccc(C(=O)Nc2ccc(S(=O)(=O)O)c3cc(S(=O)(=O)O)cc(S(=O)(=O)O)c23)cc1NC(=O)c1cccc(NC(=O)Nc2cccc(C(=O)Nc3cc(C(=O)Nc4ccc(S(=O)(=O)O)c5cc(S(=O)(=O)O)cc(S(=O)(=O)O)c45)ccc3C)c2)c1 [Suramin]
[1]
  inhibition of envelope protein binding by polyanionic compounds: inhibited envelope protein binding
[2]; Vero cells incubated with compound, washed before exposure to virus
  effect on infectious titer: no effect on infectious titer
[2]; high doses (0-2.5 mg/ml), compound incubated with virus
  prevention of dengue virus infection of Vero cells: completely protective at high doses

## [Na+].[O-][Cl+2]([O-])[O-] [sodium chlorate]
Vero cells
  envelope protein binding after sulfation inhibition: complete loss of binding
[3]
  envelope protein binding after sulfation inhibition: dose dependent partial inhibition of binding

## dextran sulfate [DexS]
[1]; antagonist 10 μg/ml
  inhibition of envelope protein binding to Vero cells (competitive antagonist): no effect
[1]; concentrations up to 30 μg/ml
  inhibition of envelope protein binding to Vero cells (competitive antagonist): no inhibitory effect

## sulfated lactobionic acid
[1]
  inhibition of envelope protein binding by polyanionic compounds: inhibited envelope protein binding
